Results taken from patent US20100204167A1, “ACTIVE COMPOUND COMBINATIONS HAVING INSECTICIDAL AND ACARICIDAL PROPERTIES” (priority 2006, published 2010).

How the values were obtained:
[1] = test system: Phaedon cochleariae larvae; assay: Phaedon cochleariae larvae test (Example D, spray); type: in vivo; details: single active compound
[2] = test system: Spodoptera frugiperda larvae; assay: Spodoptera frugiperda larvae test (spray); type: in vivo; details: single active compound
Myzus persicae [3] = assay: Myzus persicae test (cabbage leaves sprayed); type: in vivo; details: single active compound
Tetranychus urticae = assay: Tetranychus test (OP-resistant/spray treatment); type: in vivo; details: single active compound
Protocol: Disks of bean leaves (Phaseolus vulgaris) which are infested by all stages of the greenhouse red spider mite (Tetranychus urticae) are sprayed with an active compound preparation of the desired concentration.
After the desired period of time, the activity in % is determined.

Aphis gossypii = Aphis gossypii test (cotton leaves dipped); type: in vivo; details: single active compound
Myzus persicae [4] = assay: Myzus persicae test (cabbage leaves dipped); type: in vivo; details: single active compound
[5] = test system: Phaedon cochleariae larvae; assay: Phaedon cochleariae larvae test (Example G); details: 0.8 ppm, single active compound

Compound: CCOCn1c(-c2ccc(Cl)cc2)c(C#N)c(Br)c1C(F)(F)F [chlorfenapyr]
- Kill in % after 2d ([1]; 4 g/ha): 0%

Compound: CC(C)c1cc(Oc2ccccc2)cc(C(C)C)c1NC(=S)NC(C)(C)C [diafenthiuron]
- Kill in % after 2d ([2]; 100 g/ha): 50%
- Kill in % after 6d (Myzus persicae [3]; 4 g/ha): 60%

Compound: CC(C)(C)c1ccc(CSc2cnn(C(C)(C)C)c(=O)c2Cl)cc1 [pyridaben]
- Kill in % after 2d (Tetranychus urticae; 0.8 g/ha): 0%
- Kill in % after 6d ([1]; 4 g/ha): 33%

Compound: milbemectin
- Kill in % after 1d (Myzus persicae [3]; 0.8 g/ha): 0%

Compound: Cc1nn(C)c(Oc2ccccc2)c1C=NOCc1ccc(C(=O)OC(C)(C)C)cc1 [fenpyroximate]
- Kill in % after 2d ([2]; 100 g/ha): 50%
- Kill in % after 1d (Myzus persicae [3]; 20 g/ha): 20%
- Kill in % after 6d ([1]; 20 g/ha): 33%

Compound: CCOC(=O)OC1=C(c2cc(C)ccc2C)C(=O)NC12CCC(OC)CC2 (centres unmarked) [compound (I-2-a)]
- Kill in % after 6d (Aphis gossypii; 0.8 ppm): 0%
- Kill in % after 6d (Myzus persicae [4]; 0.8 ppm): 0%
- Kill in % after 2d ([2]; 20 g/ha): 17%
- Kill in % after 2d ([2]; 100 g/ha): 83%
- Kill in % after 6d (Myzus persicae [3]; 0.8 g/ha): 50%
- Kill in % after 1d (Myzus persicae [3]; 20 g/ha): 0%
- Kill in % after 2d (Tetranychus urticae; 0.8 g/ha): 0%
- Kill in % after 2d (Tetranychus urticae; 20 g/ha): 0%
- Kill in % after 6d ([1]; 4 g/ha): 0%
- Kill in % after 2d ([1]; 20 g/ha): 0%
- Kill in % after 6d ([1]; 20 g/ha): 0%

Compound: abamectin
- Kill in % after 6d (Aphis gossypii; 0.8 ppm): 45%
- Kill in % after 6d (Myzus persicae [4]; 0.8 ppm): 10%
- Kill in % after 6d (Myzus persicae [4]; 4 ppm): 65%

Compound: CO[C@H]1CC[C@]2(CC1)NC(=O)C(c1cc(C)ccc1C)=C2O [compound (I-1)]
- Kill in % after 6d (Aphis gossypii; 100 ppm): 70%
- Kill in % after 6d (Myzus persicae [4]; 4 ppm): 5%
- Kill in % after 6d [5]: 0%

Compound: spinosad
- Kill in % after 6d (Aphis gossypii; 100 ppm): 20%
- Kill in % after 6d [5]: 20%
- Kill in % after 2d (Tetranychus urticae; 4 g/ha): 10%

Compound: CCOC(=O)OC1=C(c2cc(C)ccc2C)C(=O)N[C@]12CC[C@@H](OC)CC2 [compound (I-2)]
- Kill in % after 6d (Aphis gossypii; 0.8 ppm): 0%
- Kill in % after 6d (Myzus persicae [4]; 0.8 ppm): 10%
- Kill in % after 2d ([2]; 20 g/ha): 17%
- Kill in % after 2d ([2]; 100 g/ha): 83%
- Kill in % after 6d (Myzus persicae [3]; 0.8 g/ha): 50%
- Kill in % after 1d (Myzus persicae [3]; 20 g/ha): 0%
- Kill in % after 2d (Tetranychus urticae; 0.8 g/ha): 20%
- Kill in % after 2d (Tetranychus urticae; 20 g/ha): 10%
- Kill in % after 6d ([1]; 4 g/ha): 0%
- Kill in % after 2d ([1]; 20 g/ha): 0%
- Kill in % after 6d ([1]; 20 g/ha): 0%

Compound: COC1CCC2(CC1)NC(=O)C(c1cc(C)ccc1C)=C2O (centres unmarked) [compound (I-1-a)]
- Kill in % after 6d (Aphis gossypii; 100 ppm): 50%
- Kill in % after 6d (Myzus persicae [4]; 4 ppm): 20%
- Kill in % after 6d [5]: 0%

Compound: CCc1nn(C)c(C(=O)NCc2ccc(C(C)(C)C)cc2)c1Cl [tebufenpyrad]
- Kill in % after 6d ([1]; 4 g/ha): 0%
